In patent publication US20240158446A1, “CYCLIC COMPOUND HAVING SELECTIVE INHIBITORY ACTION ON KRAS OVER HRAS AND NRAS” (CHUGAI SEIYAKU KABUSHIKI KAISHA, priority 2021, published 2024):
Where two headings read alike, the source gives them in different places. Where a SMILES comes first, the peptide text is derived from it. Bridges are numbered along the chain shown (N, C = ends). [ ]: non-standard residue; d: D form. The star is where a group is joined. hPhe(3,5-F2-4-CF3) = N[C@@H](CCc1cc(F)c(C(F)(F)F)c(F)c1)C(=O)O; hPhe(3-Cl-4-CF3) = N[C@@H](CCc1ccc(C(F)(F)F)c(Cl)c1)C(=O)O; NPrPhe(4-CF3) = CCCN[C@@H](Cc1ccc(C(F)(F)F)cc1)C(=O)O; NMeGly(cPent) = CN[C@H](C(=O)O)C1CCCC1; Pro(4,4-F2) = O=C(O)[C@@H]1CC(F)(F)CN1; Hyp = O=C(O)[C@@H]1C[C@@H](O)CN1; NMeD = CN[C@@H](CC(=O)O)C(=O)O; Ac4c(3-oxa) = NC1(C(=O)O)COC1; NMeL = CN[C@@H](CC(C)C)C(=O)O; Morpholide = C1CN(*)CCO1; Ac5c = NC1(C(=O)O)CCCC1; Aze = O=C(O)[C@@H]1CCN1; Ac4c = NC1(C(=O)O)CCC1; Sar = CNCC(=O)O

Columns and labels:
[1] = biological target: GDP-bound NRAS wild-type protein (Homo sapiens, UniProt P01111); assay: Binding to NRAS by surface plasmon resonance (SPR), Single Cycle Kinetics; conditions: for NRAS/KRAS (ratio of KD value for NRAS to KD value for KRAS) / NRAS/KRAS (ratio of KD value with respect to NRAS to KD value with respect to KRAS): SPR, GDP-bound NRAS wild-type protein vs GDP-bound KRAS wild-type protein
[2] = biological target: GDP-bound KRAS wild-type protein (Homo sapiens, UniProt P01116); assay: Binding to KRAS by surface plasmon resonance (SPR), Single Cycle Kinetics; conditions: GDP-bound KRAS wild-type protein, read-out: KRAS KD
[3] = biological target: GDP-bound HRAS wild-type protein (Homo sapiens, UniProt P01112); assay: Binding to HRAS by surface plasmon resonance (SPR), Single Cycle Kinetics; conditions: for HRAS/KRAS (ratio of KD value for HRAS to KD value for KRAS) / HRAS/KRAS (ratio of KD value with respect to HRAS to KD value with respect to KRAS): SPR, GDP-bound HRAS wild-type protein vs GDP-bound KRAS wild-type protein
[4] = SPR Single Cycle Kinetics, 1:1 binding model
[5] = SPR, Single Cycle Kinetics, 1:1 binding model

Sequence of GDP-bound HRAS wild-type protein (P01112 whole entry): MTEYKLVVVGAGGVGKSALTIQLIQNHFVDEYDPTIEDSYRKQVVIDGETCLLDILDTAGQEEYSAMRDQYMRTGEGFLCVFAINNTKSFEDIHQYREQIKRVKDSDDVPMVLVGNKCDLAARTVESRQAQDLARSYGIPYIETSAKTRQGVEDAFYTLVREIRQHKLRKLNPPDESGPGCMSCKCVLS
Sequence of GDP-bound KRAS wild-type protein (P01116 whole entry): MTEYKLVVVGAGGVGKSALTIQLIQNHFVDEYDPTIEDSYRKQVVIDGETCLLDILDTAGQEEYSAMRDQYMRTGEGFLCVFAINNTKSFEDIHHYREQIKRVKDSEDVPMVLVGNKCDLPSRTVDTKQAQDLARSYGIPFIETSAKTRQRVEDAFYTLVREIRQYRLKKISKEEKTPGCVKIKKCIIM
Sequence of GDP-bound NRAS wild-type protein (P01111 whole entry): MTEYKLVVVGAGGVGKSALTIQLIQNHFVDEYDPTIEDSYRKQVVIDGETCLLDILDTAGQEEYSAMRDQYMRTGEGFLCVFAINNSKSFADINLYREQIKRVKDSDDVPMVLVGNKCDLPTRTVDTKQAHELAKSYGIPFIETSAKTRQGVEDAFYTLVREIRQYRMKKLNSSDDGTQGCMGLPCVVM

| Compound | Kd ([2]; SPR, Single Cycle Kinetics) [nM] | Kd [2, 4] [nM] | NRAS/KRAS (ratio of KD value for NRAS to KD value for KRAS) [1] | HRAS/KRAS (ratio of KD value for HRAS to KD value for KRAS) [3] | also measured |
| --- | --- | --- | --- | --- | --- |
| CCO[C@@H]1C[C@H]2C(=O)NC3(CC(C)(C)C3)C(=O)N(C)[C@@H](C(CC)CC)C(=O)N(C)[C@H](C(=O)N(C)C)CC(=O)N(C)[C@@H](CC3CCC3)C(=O)N[C@@H]([C@@H](C)CC)C(=O)N(C)CC(=O)N(C)[C@H]3C/C=C\CCN(C3=O)[C@@H](Cc3ccc(C(F)(F)F)cc3)C(=O)N(C)CC(=O)N[C@@H](CCc3ccc(Cl)c(Cl)c3)C(=O)N2C1 [PP2180] | 0.66 |  | AA (a compound having 20 or more is denoted as AA) | A (a compound having 10 or more and less than 20 is denoted as A) |  |
| CCCN1C(=O)CN(C)C(=O)CN(C)C(=O)[C@H]([C@@H](C)CC)NC(=O)[C@H](CC(C)C)N(C)C(=O)C[C@@H](C(=O)N(C)C)N(C)C(=O)[C@H](C2CCCC2)N(C)C(=O)C2(COC2)NC(=O)[C@@H]2CCCN2C(=O)[C@H](CCc2cc(F)c(C(F)(F)F)c(F)c2)NC(=O)CN(C)C(=O)[C@@H]1Cc1ccc(C(F)(F)F)cc1 [PP0744] ([NMeL]I[Sar][Sar][NPrPhe(4-CF3)][Sar][hPhe(3,5-F2-4-CF3)]P[Ac4c(3-oxa)][NMeGly(cPent)][NMeD]-NMe2; lactam N-11) |  | 0.06 |  |  | NRAS/KRAS (ratio of KD value with respect to NRAS to KD value with respect to KRAS) [1]: B (a compound having 3 or more and less than 10 is denoted as B); HRAS/KRAS (ratio of KD value with respect to HRAS to KD value with respect to KRAS) [3]: B (a compound having 3 or more and less than 10 is denoted as B) |
| CC[C@H](C)[C@@H]1NC(=O)[C@H](CC2CC2)N(C)C(=O)C[C@@H](C(=O)N(C)C)N(C)C(=O)[C@H](C2CCCC2)N(C)C(=O)C2(CCC2)NC(=O)[C@@H]2C[C@@H](F)CN2C(=O)[C@H](CCc2cc(F)c(C(F)(F)F)c(F)c2)NC(=O)CN(C)C(=O)[C@H](Cc2ccc(C(F)(F)F)cc2)N2CC/C=C\C[C@@H](C2=O)N(C)C(=O)CN(C)C1=O [PP1497, (2S,8S,12R,14S,20S,23S,27S,30S,36S,38Z)-20-cyclopentyl-27-(cyclopropylmethyl)-8-[2-[3,5-difluoro-4-(trifluoromethyl)phenyl]ethyl]-12-fluoro-N,N,4,19,22,26,32,35-octamethyl-30-[(1S)-1-methylpropyl]-3,6,9,15,18,21,25,28,31,34,42-undecaoxo-2-[[4-(trifluoromethyl)phenyl]methyl]spiro[1,4,7,10,16,19,22,26,29,32,35-undecazatricyclo[34.5.1.0^10,14]dotetracont-38-ene-17,1′-cyclobutane]-23-carboxamide] |  |  |  |  | NRAS/KRAS (ratio of KD value for NRAS to KD value for KRAS) ([1]; KD ratio class): A (a compound having 10 or more and less than 20 is denoted as A); Kd [2, 5]: 0.022 nM; HRAS/KRAS (ratio of KD value for HRAS to KD value for KRAS) ([3]; KD ratio class): A (a compound having 10 or more and less than 20 is denoted as A) |
| CC[C@H](C)[C@@H]1NC(=O)[C@H](CC2CC2)N(C)C(=O)C[C@@H](C(=O)N(C)C)N(C)C(=O)[C@H](C2CCCC2)N(C)C(=O)C2(CCCC2)NC(=O)[C@@H]2CC(F)(F)CN2C(=O)[C@H](CCc2cc(F)c(C(F)(F)F)c(F)c2)NC(=O)CN(C)C(=O)[C@H](Cc2ccc(C(F)(F)F)cc2)N2CC/C=C\C[C@@H](C2=O)N(C)C(=O)CN(C)C1=O [PP1513, (2S,8S,14S,20S,23S,27S,30S,36S,38Z)-20-cyclopentyl-27-(cyclopropylmethyl)-8-[2-[3,5-difluoro-4-(trifluoromethyl)phenyl]ethyl]-12,12-difluoro-N,N,4,19,22,26,32,35-octamethyl-30-[(1S)-1-methylpropyl]-3,6,9,15,18,21,25,28,31,34,42-undecaoxo-2-[[4-(trifluoromethyl)phenyl]methyl]spiro[1,4,7,10,16,19,22,26,29,32,35-undecazatricyclo[34.5.1.0^10,14]dotetracont-38-ene-17,1′-cyclopentane]-23-carboxamide] |  |  |  |  | NRAS/KRAS (ratio of KD value for NRAS to KD value for KRAS) ([1]; KD ratio class): A (a compound having 10 or more and less than 20 is denoted as A); Kd [2, 5]: 0.071 nM; HRAS/KRAS (ratio of KD value for HRAS to KD value for KRAS) ([3]; KD ratio class): A (a compound having 10 or more and less than 20 is denoted as A) |
| CCCN1C(=O)CN(C)C(=O)CN(C)C(=O)[C@H]([C@@H](C)CC)NC(=O)[C@H](CC(C)C)N(C)C(=O)C[C@@H](C(=O)N2CCOCC2)NC(=O)[C@H](C2CCCC2)N(C)C(=O)C2(CCCC2)NC(=O)[C@@H]2CC(F)(F)CN2C(=O)[C@H](CCc2ccc(C(F)(F)F)c(Cl)c2)NC(=O)CN(C)C(=O)[C@@H]1Cc1ccc(C(F)(F)F)cc1 [PP0321] ([NMeL]I[Sar][Sar][NPrPhe(4-CF3)][Sar][hPhe(3-Cl-4-CF3)][Pro(4,4-F2)][Ac5c][NMeGly(cPent)]D-Morpholide; lactam N-11) |  | 1 | B (a compound having 3 or more and less than 10 is denoted as B) | B (a compound having 3 or more and less than 10 is denoted as B) |  |
| CCO[C@@H]1C[C@H]2C(=O)NC3(CC(C)(C)C3)C(=O)N(C)[C@@H](C3CCCC3)C(=O)N(C)[C@H](C(=O)N(C)CC)CC(=O)N(C)[C@@H](C(C)C)C(=O)N[C@@H]([C@@H](C)CC)C(=O)N(C)CC(=O)N(C)[C@H]3C/C=C\CCN(C3=O)[C@@H](Cc3ccc(C(F)(F)F)cc3)C(=O)N(C)CC(=O)N[C@@H](CCc3cc(F)c(C(F)(F)F)c(F)c3)C(=O)N2C1 [PP2034] | 0.19 |  | A (a compound having 10 or more and less than 20 is denoted as A) | A (a compound having 10 or more and less than 20 is denoted as A) |  |

Now from value to molecule, other results behind:

| Kd ([2]; SPR, Single Cycle Kinetics) [nM] | Kd [2, 4] [nM] | Compound | NRAS/KRAS (ratio of KD value for NRAS to KD value for KRAS) [1] | HRAS/KRAS (ratio of KD value for HRAS to KD value for KRAS) [3] | also measured |
| --- | --- | --- | --- | --- | --- |
|  | 0.44 | CCCN1C(=O)[C@@H]2CCN2C(=O)CN(C)C(=O)[C@H]([C@@H](C)CC)NC(=O)[C@H](CC(C)C)N(C)C(=O)C[C@@H](C(=O)N2CCOCC2)NC(=O)[C@H](C2CCCC2)N(C)C(=O)C2(CCC2)NC(=O)[C@@H]2C[C@@H](OCC)CN2C(=O)[C@H](CCc2ccc(C(F)(F)F)c(Cl)c2)NC(=O)CN(C)C(=O)[C@@H]1Cc1ccc(C(F)(F)F)cc1 [PP0354] ([NMeL]I[Sar][Aze][NPrPhe(4-CF3)][Sar][hPhe(3-Cl-4-CF3)][Hyp](Et)[Ac4c][NMeGly(cPent)]D-Morpholide; lactam N-11) | C (A compound having a KD ratio of 0.1 or more and less than 3 is denoted as C) | B (a compound having 3 or more and less than 10 is denoted as B) |  |
| 0.6 |  | CCO[C@@H]1C[C@H]2C(=O)NC3(CC=CC3)C(=O)N(C)[C@@H](C3CCCC3)C(=O)N(C)[C@H](C(=O)N3CCOCC3)CC(=O)N(C)[C@@H](COC)C(=O)N[C@@H]([C@@H](C)CC)C(=O)N(C)CC(=O)N(C)[C@H]3CCCCCN(C3=O)[C@@H](Cc3ccc(C(F)(F)F)cc3)C(=O)N(C)CC(=O)N[C@@H](CCc3cc(F)c(C(F)(F)F)c(F)c3)C(=O)N2C1 [PP0842] | B (a compound having 3 or more and less than 10 is denoted as B) | B (a compound having 3 or more and less than 10 is denoted as B) |  |
|  | 0.23 | CCO[C@@H]1C[C@H]2C(=O)NC3(CCC3)C(=O)N(C)[C@@H](C(CC)CC)C(=O)N(C)[C@H](C(=O)N3CCCC3)CC(=O)N(C)[C@H]3CCC/C=C/c4ccc(cc4)C[C@@H](C(=O)N(C)CC(=O)N[C@@H](CCc4cc(F)c(C(F)(F)F)c(F)c4)C(=O)N2C1)N1CC/C=C\C[C@@H](C1=O)N(C)C(=O)CN(C1CC1)C(=O)[C@H]([C@@H](C)CC)NC3=O [PP2957] |  |  | NRAS/KRAS (ratio of KD value with respect to GDP-bound NRAS wild-type protein to KD value with respect to KRAS) ([1]; SPR KD ratio NRAS/KRAS, class symbols): AA (a compound having 20 or more is denoted as AA); HRAS/KRAS (ratio of KD value with respect to GDP-bound HRAS wild-type protein to KD value with respect to KRAS) ([3]; SPR KD ratio HRAS/KRAS, class symbols): A (a compound having 10 or more and less than 20 is denoted as A) |
|  | 0.2 | CCO[C@@H]1C[C@H]2C(=O)NC3(CCC3)C(=O)N(C)[C@@H](C3CCCC3)C(=O)N(C)[C@H](C(=O)N(C)C)CC(=O)N(C)[C@@H](C)C(=O)N[C@@H]([C@@H](C)CC)C(=O)N(C)CC(=O)N(C)[C@H]3CCCCCN(C3=O)[C@@H](Cc3ccc(C(F)(F)F)cc3)C(=O)N(C)CC(=O)N[C@@H](CCc3cc(F)c(C(F)(F)F)c(F)c3)C(=O)N2C1 [PP0476] |  |  | NRAS/KRAS (ratio of KD value with respect to NRAS to KD value with respect to KRAS) [1]: B (a compound having 3 or more and less than 10 is denoted as B); HRAS/KRAS (ratio of KD value with respect to HRAS to KD value with respect to KRAS) [3]: B (a compound having 3 or more and less than 10 is denoted as B) |
| 0.35 |  | CCOC[C@H]1C(=O)N[C@@H]([C@@H](C)CC)C(=O)N2CCC[C@H]2C(=O)N(C)[C@H]2C/C=C\CCN(C2=O)[C@@H](Cc2ccc(C(F)(F)F)cc2)C(=O)N(C)CC(=O)N[C@@H](CCc2ccc(C(F)(F)F)c(OC)c2)C(=O)N2C[C@H](OCC)C[C@H]2C(=O)N(C)C2(CCC2)C(=O)N(C)[C@@H](C(CC)CC)C(=O)N(C)[C@H](C(=O)N(C)C)CC(=O)N1C [PP2319] | AA (a compound having 20 or more is denoted as AA) | A (a compound having 10 or more and less than 20 is denoted as A) |  |
